Laboratory results: publication PMC2132544 (The Journal of Cell Biology, 1997)
Read-outs that look alike come from different tables or passages of the source.

Assays:
[1] = system: Shigella flexneri intracellular motility in PtK2 cells; conditions: cited from earlier work
[2] = system: Shigella flexneri intracellular motility in PtK2 cells; format: cell-based
[3] = microinjected peptide, ref Zeile et al. (1996)

poly- L-proline [poly-L-proline]
effect on Shigella motility ([1]; poly-L-proline intracellular concentration 1 μM, ref Zeile et al., 1996): failed to inhibit motility

Gly-Pro-Pro-Pro-Pro Pro [ABM-2 peptide]
effect on Shigella motility [1, 3]: blocks Shigella actin-based motility

FEFPPPPTDE [ActA ABM-1 peptide]
effect on Shigella motility [1, 3]: arrested intracellular Shigella motility

B1: full-length vinculin: Full-length 120-kD human platelet vinculin (protein, UniProt P18206 1-1134, looked up)
Vinculin: MPVFHTRTIESILEPVAQQISHLVIMHEEGEVDGKAIPDLTAPVAAVQAAVSNLVRVGKETVQTTEDQILKRDMPPAFIKVENACTKLVQAAQMLQSDPYSVPARDYLIDGSRGILSGTSDLLLTFDEAEVRKIIRVCKGILEYLTVAEVVETMEDLVTYTKNLGPGMTKMAKMIDERQQELTHQEHRVMLVNSMNTVKELLPVLISAMKIFVTTKNSKNQGIEEALKNRNFTVEKMSAEINEIIRVLQLTSWDEDAWASKDTEAMKRALASIDSKLNQAKGWLRDPSASPGDAGEQAIRQILDEAGKVGELCAGKERREILGTCKMLGQMTDQVADLRARGQGSSPVAMQKAQQVSQGLDVLTAKVENAARKLEAMTNSKQSIAKKIDAAQNWLADPNGGPEGEEQIRGALAEARKIAELCDDPKERDDILRSLGEISALTSKLADLRRQGKGDSPEARALAKQVATALQNLQTKTNRAVANSRPAKAAVHLEGKIEQAQRWIDNPTVDDRGVGQAAIRGLVAEGHRLANVMMGPYRQDLLAKCDRVDQLTAQLADLAARGEGESPQARALASQLQDSLKDLKARMQEAMTQEVSDVFSDTTTPIKLLAVAATAPPDAPNREEVFDERAANFENHSGKLGATAEKAAAVGTANKSTVEGIQASVKTARELTPQVVSAARILLRNPGNQAAYEHFETMKNQWIDNVEKMTGLVDEAIDTKSLLDASEEAIKKDLDKCKVAMANIQPQMLVAGATSIARRANRILLVAKREVENSEDPKFREAVKAASDELSKTISPMVMDAKAVAGNISDPGLQKSFLDSGYRILGAVAKVREAFQPQEPDFPPPPPDLEQLRLTDELAPPKPPLPEGEVPPPRPPPPEEKDEEFPEQKAGEVINQPMMMAARQLHDEARKWSSKPGIPAAEVGIGVVAEADAADAAGFPVPPDMEDDYEPELLLMPSNQPVNQPILAAAQSLHREATKWSSKGNDIIAAAKRMALLMAEMSRLVRGGSGTKRALIQCAKDIAKASDEVTRLAKEVAKQCTDKRIRTNLLQVCERIPTISTQLKILSTVKATMLGRTNISDEESEQATEMLVHNAQNLMQSVKETVREAEAASIKIRTDAGFTLRWVRKTPWYQ
effect on bacterial migration speeds ([2]; estimated intracellular 0.12 μM (identical to p90)): failed to cause any significant change | effect on Shigella intracellular motility ([2]; needle concentration 2.2 μM, estimated intracellular concentration 0.22 μM): failed to accelerate
